Source: patent US10704076B2, “Multi-tiered high through-put screen for compounds effective against bacterial biofilm and compounds effective for inhibiting and eradicating bacterial biofilm” (University of Cincinnati, priority 2013, dated 2020)

Columns and labels:
[1] = tested on: S. epidermidis established biofilm; experiment: Killing of established Se biofilm by compounds Se-1 through Se-16; type: cell-based, Staphylococcus epidermidis; conditions: 300 μM compound, X / O
Excerpt: This Example illustrates efficacy of compounds Se-1 through Se-16 at inhibiting S. epidermidis biofilm formation and/or killing established S. epidermidis biofilms. Detailed methods, materials and data are set forth in Shea, Chloe, U of Cincinnati Masters Thesis “Effectiveness of Novel Compounds at Inhibiting and Killing P. aeruginosa and S. epidermidis Biofilms” published on Mar. 17, 2013, the entire disclosure of which is incorporated herein by this reference. FIG. 8 illustrates effective inhibition of Se biofilm formation. For these experiments, Se was co-cultured with 10 μM of compounds Se-1 through Se-16 (see Table 5 for compound names and Table 6 for compound structures). A-H represents the top view of the Se biofilm, while the sagittal view is shown in I-P. The control Se biofilm is shown in A/I. Se biofilm formation in the presence of 10 μM of compound Se-3, Se-4, Se-13, Se-14, Se-15 or Se-16 as shown in B/J, C/K, D/L, E/M, F/N, G/O, and H/P, respectively. FIG. 9 illustrates effective killing of established Se biofilm. For this experiment, Se biofilms were treated with 300 μM of compounds Se-1 through Se-16. A-H represents the top view of the Se biofilm, while the sagittal view is shown in I-P. The control Se biofilm is shown in A/I. Effective killing was defined as >50% dead bacteria.

P. aeruginosa = experiment: HTS total bacterial growth assay (optical density OD560); type: cell-based, Pseudomonas aeruginosa; conditions: Pseudomonas aeruginosa, 10 point dose-response 0.1-50 μM, read-out: Total Bacteria Growth AC50
Excerpt: (§1) Each HTS tier consisted of: (i) primary screening, (ii) confirmation screening and (iii) dose-response curve screening. Each tier of HTS included three distinct biological process assays. The first assay was an optical density measurement of bacteria growth in the presence of each compound reported as a total bacteria growth. In the second assay, resazurin solution was used as an indicator of metabolic activity to measure the live bacteria in the biofilms, reported as live biofilm. The final assay was crystal violet staining, which indicated the amount of biofilm formation and the effect of each compound on this process, reported as total biofilm formation.
(§2) Briefly, stationary phase bacteria grown in L-broth were diluted 1:200 into fresh L-broth and 50 μM of each test compound. After 20-24 hours, the optical density (OD560) of each suspension was measured using Zeiss Plate::Vision with a 560 BP filter (560 nm, 2.5% light intensity, 1 mm focus to bottom of plate, and exposure time of 100 ms). To measure bacterial viability in the biofilm, 50 μl of a 5 mg/ml resazurin solution in L-broth was added to each well after washing 3 times with 50 μl of PBS. The plates were then incubated at 37° C. for 30 or 180 min for A. baumannii and P. aeruginosa biofilms, respectively. Fluorescence was measured using Zeiss Plate::Vision at excitation and emission wavelengths of 535 and 580 nm, 100 ms exposure time, 2.5% intensity and a 2 mm focus to the bottom of the biofilms. To assess biofilm formation, plates were washed 3 times with PBS and then 50 μl of 0.01% of crystal violet was added to each well to assess bacterial biofilm formation as described in a similar borosilicate tube assay by O'Toole and Kolter. After incubation at room temperature for 30 min and removal of the crystal violet solution by washing with PBS, 95% ethanol was added to solubilize the crystal violet followed by incubation for 20 min at room temperature. Finally, the optical density of each plate was determined using measured by Zeiss Plate::Vision using the same settings used to measure total bacterial growth. These 3 steps were used in each of the three tiers for the HTS process: (i) single point primary screening at 10 μM, (ii) triplicate confirmation of hits from (i) at 10 μM and (iii) determination of AC50 values in 10 point dose-response at a concentration range of 0.1-50 μM) in hits from (ii). The AC50 represents the concentration of compound that inhibits 50% of bacterial growth, bacterial viability, or biofilm formation. Genedata Screener® Assay Analyzer Software (Ver. 9.0.0 Standard) was used to analyze data from all assay tiers. Compounds with an AC50 of less than 20 μM in one of the biological assays from the dose response screen were subject to additional investigation.

P. aeruginosa biofilm [2] = experiment: HTS total biofilm formation assay (crystal violet staining); type: cell-based, Pseudomonas aeruginosa; conditions: Pseudomonas aeruginosa, 10 point dose-response 0.1-50 μM
Excerpt: as §1, §2

P. aeruginosa biofilm [3] = experiment: HTS live biofilm assay (resazurin metabolic activity); type: cell-based; conditions: Pseudomonas aeruginosa, 10 point dose-response 0.1-50 μM
Excerpt: as §1, §2

P. aeruginosa biofilm [4] = experiment: CLSM, co-culture of bacteria with compound (inhibition of biofilm formation); type: cell-based, Pseudomonas aeruginosa
Description: (§3) Broad spectrum agents (effective against all three bacterial species) and single agent compounds identified as HTS hits were investigated with CLSM confirmation of inhibition of biofilm formation (culture of bacteria with compounds) or killing of bacteria residing within an established biofilm (compound addition after culturing biofilm). To evaluate inhibition of P. aeruginosa biofilms, bacteria were sub-cultured into 10% L-broth and grown at 37° C. until the OD600 reached 0.25. The bacteria were further diluted 1:100 into a modified 0.5×M63 minimum media (50 mM KH2PO4, 7.5 mM (NH4)2SO4, 9 μM FeSO4, 0.5% casamino acids, 0.2% glucose, and 1 mM MgSO4). A. baumannii biofilms were also grown in 10% L-broth until the OD600 reached 0.05 but diluted 1:10 into 5% L-broth media. S. epidermidis biofilm cultures were grown. Briefly, the bacteria were grown in TSB until the OD600 reached 0.75, and a 1:100 dilution of the bacteria was sub-cultured into phosphate buffered saline (PBS). All of the biofilm bacterial cultures were grown in 96-well plate chambers (MatTek Corp., Ashland, Mass.) in the presence of 10 μM of each compound or DMSO as a control and incubated for 18 hrs at 37° C. To investigate the ability of compounds to kill bacteria within pre-existing biofilms, biofilms were grown under the same conditions, but without test compound. These biofilms were washed once with PBS and incubated an additional 24 hr at 37° C. in PBS containing 300 μM of each compound. All biofilm cultures were then washed twice with 100 μL of PBS and stained using the LIVE/DEAD® BacLight™ Bacterial Viability Kit (Invitrogen). Finally, biofilm images were obtained using a Zeiss LSM510 META Confocal Microscope (Carl Zeiss, Inc., Germany). A 488 nm laser was used in conjunction with a Plan-Apochromat 100×/1.4 Oil DIC objective. Z-stacks were 8 bit and measured 127.3 μm×127.3 μm×16.0 μm in size. The filters used were 505-530 and 620-680 IR, as the excitation and emission wavelengths for red fluorescence are 490 nm and 635 nm, respectively, and 480 nm and 500 nm for green fluorescence. Three dimensional images were generated using the “Projection” ability on LSM Image Browser software (v.1.4.0.121) or Zeiss LSM image browser software version 3.5 (Carl Zeiss, Inc., Germany), and Live/Dead calculations were conducted based upon these images using MacBiophotonics ImageJ following the guidelines in the cell counting guide by C. Labno {Rasband, 1997-2011 #25; Labno, #2} at the University of Chicago Integrated Light Microscopy Core. The thickness of the biofilm was calculated using Comstat software. A hit was defined as a >50% dead to live ratio.
(§4) The CLSM experiment was performed in one or two or all bacteria used in this study depending on its activity. For the validation of HTS hits, 10 μM of compound was added to each bacterial suspension and the resulting biofilm stained with LIVE/DEAD® BacLight™ Bacterial Viability Kit. The images were analyzed to determine the live and dead ratios of biofilm bacteria, the thickness of biofilms, and structural attributes of biofilms.

[5] = tested on: P. aeruginosa established biofilm; experiment: CLSM, effect of compound on the pre-existing biofilm; type: cell-based, Pseudomonas aeruginosa; conditions: 300 μM, 24 hr
Description: as §3, §4

A. baumannii = experiment: HTS total bacterial growth assay (optical density OD560); type: cell-based, Acinetobacter baumannii; conditions: Acinetobacter baumannii, 10 point dose-response 0.1-50 μM, NS* = no sigmoid curve observed, read-out: Total Bacteria Growth AC50
Excerpt: as §1, §2

A. baumannii biofilm [6] = experiment: HTS total biofilm formation assay (crystal violet staining); type: cell-based, Acinetobacter baumannii; conditions: Acinetobacter baumannii, 10 point dose-response 0.1-50 μM
Excerpt: as §1, §2

A. baumannii biofilm [7] = experiment: HTS live biofilm assay (resazurin metabolic activity); type: cell-based, Acinetobacter baumannii; conditions: Acinetobacter baumannii, 10 point dose-response 0.1-50 μM
Excerpt: as §1, §2

A. baumannii biofilm [8] = experiment: CLSM, co-culture of bacteria with compound (inhibition of biofilm formation); type: cell-based, Acinetobacter baumannii
Description: as §3, §4

[9] = CLSM, 10 μM compound, 18 hrs, Y / —

SMILES: O=C(Nc1ccc(Cl)cc1)Nc1nnc(C(F)(F)F)s1 [Se10, 1-(4-chlorophenyl)-3-[5-(trifluoromethyl)-1,3,4-thiadiazol-2-yl]urea]
- Killing [1]: X (Effective killing was defined as >50% dead bacteria)

SMILES: N#C/C(=N\Nc1ccc(OC(F)(F)F)cc1)C(=O)c1cccs1 [Se12, (2E]-3-keto-3-(2-thienyl]-2-[[4-(trifluoromethoxy)phenyl]hydrazono]propionitrile]
- Killing [1]: X (Effective killing was defined as >50% dead bacteria)

SMILES: CN(C)c1ccc(CN2CCN(C(=O)Nc3ccc(C(F)(F)F)cc3)CC2)cc1 [Se3, 4-{[4-(dimethylamino]phenyl]methyl}-N-[4-(trifluoromethyl]phenyl]piperazine-1-carboxamide]
- Killing [1]: X (Effective killing was defined as >50% dead bacteria)

SMILES: O=C(Nc1cccc(F)c1)c1ccccc1NS(=O)(=O)c1ccc(Br)cc1 [Se15, 2-[(4-bromophenyl)sulfonylamino]-N-(3-fluorophenyl)benzamide]
- Killing [1]: X (Effective killing was defined as >50% dead bacteria)

SMILES: CC(C)(C)n1cc(C(=O)O)c(=O)c2cc(F)c(N3CCN(C(=S)S)CC3)nc21 [Compound 9, 1-(1,1-dimethylethyl)-1,4-dihydro-6-fluoro-4-oxo-7-(4-dithiocarboxypiperazin-1-yl)-1,8-Naphthyridinyl-3-carboxylic acid]
- AC50 (P. aeruginosa): 27.7 µM
- AC50 (P. aeruginosa biofilm [2]): 3.6 µM
- AC50 (P. aeruginosa biofilm [3]): 8.14 µM
- Co-culture of bacteria with compound: Inhibit biofilm formation (P. aeruginosa biofilm [4]; CLSM, 10 μM compound, 18 hrs): failed to inhibit biofilm formation
- killing of established P. aeruginosa biofilm (CLSM, in words) [5]: failed to kill bacteria within a biofilm

SMILES: NC1=CC(=O)c2nonc2C1=O [Compound 2, 5-amino-2,1,3-Benzoxadiazole-4,7-dione]
- AC50 (A. baumannii): 2.21 µM
- AC50 (P. aeruginosa): 9.09 µM
- AC50 (A. baumannii biofilm [6]): 3.15 µM
- AC50 (P. aeruginosa biofilm [2]): 1.43 µM
- AC50 (A. baumannii biofilm [7]): 3.21 µM
- AC50 (P. aeruginosa biofilm [3]): 15.2 µM
- killing of residential bacteria, co-culture (CLSM, in words) (A. baumannii biofilm [8]; 10 μM): effectively killed the residential bacteria
- Co-culture of bacteria with compound: Killing (A. baumannii biofilm [8]; [9]): Y (A hit was defined as a >50% dead to live ratio)
- killing of residential bacteria, co-culture (CLSM, in words) (P. aeruginosa biofilm [4]; 10 μM): effectively killed the residential bacteria
- Co-culture of bacteria with compound: Killing (P. aeruginosa biofilm [4]; [9]): Y (A hit was defined as a >50% dead to live ratio)

SMILES: CN(C)c1ccc(C(=C2C=CC(=[N+](C)C)C=C2)c2ccc(N(C)C)cc2)cc1 [Se13, [4-[bis(4-dimethylaminophenyl]methylene]-1-cyclohexa-2,5-dienylidene]-dimethyl-ammonium]
- Killing [1]: X (Effective killing was defined as >50% dead bacteria)

SMILES: CCCCCCCCCCCCOCC[N+](CCO)(CCO)Cc1ccccc1 [Se4, 2-dodecoxyethyl-bis(2-hydroxyethyl)-(phenylmethyl)ammonium]
- Killing [1]: X (Effective killing was defined as >50% dead bacteria)

SMILES: CCc1c(C)[nH]c(CC(=O)O)c1C [Se14, 2-(4-ethyl-3,5-dimethyl-1H-pyrrol-2-yl]acetic acid]
- Killing [1]: X (Effective killing was defined as >50% dead bacteria)
